The target in data set [1] is T1, Beta-secretase 1 (Homo sapiens, UniProt P56817). Briefly: Inhibition of BACE1 (unknown origin).
The target in data set [2] is T1, Beta-secretase 1. Briefly: Inhibition of BACE1 (unknown origin) assessed as reduction in Abeta42 level by cell based assay.
The target in another data set is T2, Beta-secretase 2 (Homo sapiens, UniProt Q9Y5Z0).
T2 sequence (Q9Y5Z0 whole entry): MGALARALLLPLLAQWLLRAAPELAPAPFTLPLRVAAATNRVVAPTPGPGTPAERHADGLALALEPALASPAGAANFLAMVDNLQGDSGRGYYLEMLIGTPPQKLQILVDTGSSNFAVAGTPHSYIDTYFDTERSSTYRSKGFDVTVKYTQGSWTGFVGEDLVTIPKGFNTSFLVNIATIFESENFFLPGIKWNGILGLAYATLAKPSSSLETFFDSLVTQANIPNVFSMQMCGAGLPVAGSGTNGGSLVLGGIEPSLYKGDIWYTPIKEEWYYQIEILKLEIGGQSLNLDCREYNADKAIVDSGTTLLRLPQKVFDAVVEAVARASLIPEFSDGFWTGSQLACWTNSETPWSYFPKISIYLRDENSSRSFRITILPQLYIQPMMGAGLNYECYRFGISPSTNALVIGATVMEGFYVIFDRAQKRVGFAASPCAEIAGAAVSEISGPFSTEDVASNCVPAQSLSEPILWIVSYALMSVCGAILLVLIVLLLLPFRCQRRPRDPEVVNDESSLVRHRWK
Briefly: Inhibition of BACE2 (unknown origin).

The species entered for a further data set is Homo sapiens. Description: Selectivity index, ratio of IC50 for BACE2 (unknown origin) to IC50 for BACE1 (unknown origin).
Data set [3] in a line: Efflux ratio of apparent permeability across basolateral to apical over apical to basolateral side in MDCK cells. Particulars: dog. The class given is ADME, cell-based, Canis lupus familiaris.
The nature of data set [4]: Dissociation constant, pKa of the compound. Type of data set: physicochemical.
Data set [5] in a line: Metabolic stability in human liver microsomes assessed as intrinsic clearance. The class given is ADME, Microsome. Particulars: read-out: CLH. (In general: Microsomes from liver hold many membrane-bound enzymes, among them those of drug oxidation.)
Data set [6] is described as follows: Metabolic stability in dog liver microsomes assessed as intrinsic clearance. Type of data set: ADME, Canis lupus familiaris, Microsome. Particulars: read-out: CLH.
In the next data set the target is Cytochrome P450 2D6 (Homo sapiens, UniProt P10635). Briefly: Inhibition of CYP2D6 (unknown origin). Type of data set: ADME.
Chain of Cytochrome P450 2D6 (P10635 whole entry): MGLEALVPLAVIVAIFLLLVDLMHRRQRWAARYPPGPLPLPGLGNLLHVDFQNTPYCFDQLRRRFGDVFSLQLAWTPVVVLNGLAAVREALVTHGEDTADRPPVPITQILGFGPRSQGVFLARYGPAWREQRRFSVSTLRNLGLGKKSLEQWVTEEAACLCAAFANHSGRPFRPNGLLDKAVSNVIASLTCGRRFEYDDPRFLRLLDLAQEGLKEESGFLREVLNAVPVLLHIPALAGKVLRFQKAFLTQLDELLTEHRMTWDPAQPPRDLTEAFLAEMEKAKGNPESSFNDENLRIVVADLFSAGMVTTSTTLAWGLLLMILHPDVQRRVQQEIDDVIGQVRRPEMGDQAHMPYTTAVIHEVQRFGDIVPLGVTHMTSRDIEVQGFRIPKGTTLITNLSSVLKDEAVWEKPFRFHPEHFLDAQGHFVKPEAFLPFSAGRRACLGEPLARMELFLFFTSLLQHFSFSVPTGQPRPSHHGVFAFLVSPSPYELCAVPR
The target of data set [7] is Voltage-gated inwardly rectifying potassium channel KCNH2 (Homo sapiens, UniProt Q12809). Description: Inhibition of human ERG.
Chain of Voltage-gated inwardly rectifying potassium channel KCNH2 (Q12809 whole entry): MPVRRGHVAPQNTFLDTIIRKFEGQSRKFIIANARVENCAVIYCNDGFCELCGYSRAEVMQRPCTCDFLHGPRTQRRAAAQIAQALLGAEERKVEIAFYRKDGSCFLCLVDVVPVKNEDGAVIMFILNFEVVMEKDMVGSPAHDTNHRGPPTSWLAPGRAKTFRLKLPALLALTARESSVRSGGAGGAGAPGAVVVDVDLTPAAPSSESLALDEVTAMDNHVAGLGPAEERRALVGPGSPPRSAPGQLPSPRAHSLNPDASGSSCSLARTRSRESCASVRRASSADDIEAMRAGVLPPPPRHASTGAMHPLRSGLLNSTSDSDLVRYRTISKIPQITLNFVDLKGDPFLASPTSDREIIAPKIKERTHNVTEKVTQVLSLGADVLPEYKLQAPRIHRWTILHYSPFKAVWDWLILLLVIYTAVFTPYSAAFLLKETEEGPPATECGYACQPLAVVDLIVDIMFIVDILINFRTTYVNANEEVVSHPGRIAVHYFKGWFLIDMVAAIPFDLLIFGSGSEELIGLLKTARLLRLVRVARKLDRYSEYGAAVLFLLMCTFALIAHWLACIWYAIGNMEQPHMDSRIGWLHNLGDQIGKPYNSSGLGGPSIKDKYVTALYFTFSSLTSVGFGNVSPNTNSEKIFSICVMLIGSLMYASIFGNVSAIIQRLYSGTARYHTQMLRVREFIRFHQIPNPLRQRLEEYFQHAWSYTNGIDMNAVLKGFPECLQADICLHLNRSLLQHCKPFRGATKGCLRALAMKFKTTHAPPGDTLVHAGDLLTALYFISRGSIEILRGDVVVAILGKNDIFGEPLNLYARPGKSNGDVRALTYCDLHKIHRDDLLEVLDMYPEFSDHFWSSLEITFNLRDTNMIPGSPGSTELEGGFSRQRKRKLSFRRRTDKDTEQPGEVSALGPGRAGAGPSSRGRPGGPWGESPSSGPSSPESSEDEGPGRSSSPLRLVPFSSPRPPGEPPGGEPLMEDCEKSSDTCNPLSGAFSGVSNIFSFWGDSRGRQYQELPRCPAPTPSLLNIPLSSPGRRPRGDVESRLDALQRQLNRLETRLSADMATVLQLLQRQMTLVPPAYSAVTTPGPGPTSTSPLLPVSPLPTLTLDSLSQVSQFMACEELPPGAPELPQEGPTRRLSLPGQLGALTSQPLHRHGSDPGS

Bounds are passed on as bounds.

T1 sequence (P56817 whole entry): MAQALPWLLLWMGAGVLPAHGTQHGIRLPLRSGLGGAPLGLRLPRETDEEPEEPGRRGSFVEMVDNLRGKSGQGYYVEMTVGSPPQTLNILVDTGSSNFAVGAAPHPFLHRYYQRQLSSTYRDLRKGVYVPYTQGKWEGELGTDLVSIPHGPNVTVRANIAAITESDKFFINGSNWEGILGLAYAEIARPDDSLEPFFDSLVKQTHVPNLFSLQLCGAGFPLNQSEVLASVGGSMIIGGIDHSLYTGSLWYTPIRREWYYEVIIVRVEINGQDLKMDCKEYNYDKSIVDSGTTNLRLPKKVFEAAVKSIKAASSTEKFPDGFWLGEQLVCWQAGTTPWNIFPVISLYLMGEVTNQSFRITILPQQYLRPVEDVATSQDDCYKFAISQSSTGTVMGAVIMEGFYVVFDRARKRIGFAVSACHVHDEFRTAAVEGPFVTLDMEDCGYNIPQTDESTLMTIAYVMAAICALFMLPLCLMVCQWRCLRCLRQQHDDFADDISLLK

For the compound `NC1=N[C@@]2(c3cc(NC(=O)c4cnc(OCF)cn4)ccc3F)COCC[C@H]2CC1(F)F` (racemic), the IC50 (as a rule, the concentration that gives 50% inhibition) at Beta-secretase 1 [1] is 0.0035 µM; at Beta-secretase 1 [2] it was 0.0071 µM; against Beta-secretase 2, 0.0102 µM; against Cytochrome P450 2D6, above 10 µM; in data set [7] it was above 10 µM. Further, in the data set listed under Homo sapiens, the Ratio IC50 worked out at 3. Further, the efflux ratio (commonly a quotient of directional permeabilities that is used to spot active efflux) in [3] was 4.7. Further, the pKa (as a rule, the pH at which an ionisable group is half protonated) in [4] is 6.6. The figures for the microsomal CLint in data set [5] and in [6] were 46.2 µL/min/mg and 15.5 µL/min/mg, respectively.
Take `NC1=N[C@@]2(c3cc(NC(=O)c4cnc(OCF)cn4)ccc3F)CO[C@@H](CF)C[C@H]2CC1(F)F`: the IC50 against Beta-secretase 1 [1] was 0.0025 µM; on Beta-secretase 1 [2], 0.0048 µM; against Beta-secretase 2, 0.0089 µM; at Cytochrome P450 2D6, above 10 µM; in data set [7] it was above 10 µM. The Ratio IC50 in the data set filed under Homo sapiens was 3.6. Besides, the efflux ratio in data set [3] was determined as 12. In [4], this compound showed a pKa of 6.4. In addition, the microsomal CLint is 24.9 µL/min/mg in [5] and below 7.7 µL/min/mg in data set [6].
Turning to `C[C@H]1C[C@H]2CC(F)(F)C(N)=N[C@@]2(c2cc(NC(=O)c3cnc(OCF)cn3)ccc2F)CO1`, the IC50 is 0.0015 µM at Beta-secretase 1 [1]; 0.0035 µM at Beta-secretase 1 [2]; 0.0068 µM against Beta-secretase 2; above 10 µM at Cytochrome P450 2D6; above 10 µM in data set [7]. For the same compound, the Ratio IC50 in the data set listed under Homo sapiens came out at 4.5. For the same compound, in data set [3], the efflux ratio amounted to 5. In data set [4], this compound returned a pKa of 6.6. The microsomal CLint in data set [5] was 119 µL/min/mg; in data set [6], 18.6 µL/min/mg.
Take `NC1=N[C@@]2(c3cc(NC(=O)c4cnc(OCF)cn4)ccc3F)CCOC[C@H]2CC1(F)F` (racemic): the concentration for half-maximal inhibition (IC50) on Beta-secretase 1 [1] is 0.0794 µM; at Beta-secretase 1 [2], 0.17 µM; against Beta-secretase 2, 1.07 µM; against Cytochrome P450 2D6 it was above 10 µM; in data set [7] it was above 10 µM. The Ratio IC50 in the data set listed under Homo sapiens is 13.5. The efflux ratio in [3] was determined as 8.4. The pKa in data set [4] is 6.7. The microsomal CLint came to 35.3 µL/min/mg in [5] and 11.8 µL/min/mg in [6].
For `NC1=N[C@](CF)(c2cc(NC(=O)c3cnc(OCF)cn3)ccc2F)CCC1(F)F`, the IC50 was determined as 0.0089 µM on Beta-secretase 1 [1], 0.0933 µM on Beta-secretase 1 [2] and 0.138 µM at Beta-secretase 2. The pKa in data set [4] amounted to 6.3. The microsomal CLint in data set [5] and in data set [6] was below 7.7 µL/min/mg each time.
For the compound `C[C@@]1(c2cc(NC(=O)c3cnc(OCF)cn3)ccc2F)CCC(F)(F)C(N)=N1`, the IC50 was 0.0115 µM at Beta-secretase 1 [1]; 0.0162 µM on Beta-secretase 1 [2]; 0.126 µM on Beta-secretase 2; 1 µM against Cytochrome P450 2D6; above 10 µM in data set [7]. Also, in the data set listed under Homo sapiens, the Ratio IC50 was 11. In addition, the efflux ratio in [3] is 2.1. In addition, the pKa in [4] came out at 7.6. Also, the figures for the microsomal CLint in [5] and in [6] were 10.1 µL/min/mg and 10.2 µL/min/mg, respectively.

(Values after ChEMBL document CHEMBL4627305, “3,3-Difluoro-3,4,5,6-tetrahydropyridin-2-amines: Potent and permeable BACE-1 inhibitors” (Bioorg Med Chem Lett, 2020).)
